Data: patent US10682319B2, “Necrosis inhibitors” (National Institute of Biological Sciences, Beijing, priority 2014, dated 2020)
Read-outs that look alike come from different tables or passages of the source.

Test system: HT-29 cells
Assay: Necrosis assay (TNF-α/Smac mimetic/z-VAD induced necrosis, cell viability by ATP level)
Format: cell-based
Settings: HT-29, TNF-α + Smac mimetic + z-VAD, 24 hrs, ATP level, read-out: EC50 (inhibition of necrosis in HT-29 cells)
Procedure: HT-29 cells were cultured in McCoy's 5 A culture medium (Invitrogen). On day one, HT-29 cells were plated in 96-well assay plates at density of 2,500-3,500 cells per well. On day two, necrosis were induced by adding 20 ng/ml TNF-α (T), 100 nM Smac mimetic (S), and […] z-VAD (Z). At the same time, […] compound from a chemical library of ˜200,000 compounds was delivered into each well. After 24 hrs treatment, cell viability was determined by measuring ATP level using the CellTiter-Glo Luminescent Cell Viability Assay kit. A CellTiter-Glo Assay (Promega) was performed according to the manufacturer's instructions Luminescence was recorded with a PerkinElmer EnSpire Multimode Plate Reader. Survived cells were normalized to those cells treated with DMSO. Nec-1 was used as a positive control for screening necrosis inhibitors. Data are represented as mean±standard deviation of duplicates
Dose-dependent inhibition of necrosis by the compounds in HT-29 cells were determined by measuring ATP levels as described above.

[1] = Homo sapiens, HT-29, 24 h, values given as ranges in uM

SMILES	EC50 [1] [µM]	EC50 (values given as ranges in nM) [µM]
CCC(C)(C)C(=O)N(O)Cc1cccn1C [Compound 143]	1 to 100	–
CCC(C)(C)C(=O)N(O)Cc1cn(C)cc1C [Compound 144]	1 to 100	–
CN(Cc1cc(F)cc(F)c1F)C(=O)C1(C)CCCCC1 [Compound 65, N,1-dimethyl-N-(2,3,5-trifluorobenzyl)cyclohexanecarboxamide]	–	0.001 to 1
CCC(C)(C)C(=O)N[C@@H](CC(=O)Nc1ccccc1)c1ccccc1 [Compound 106, (S)-2,2-dimethyl-N-(3-oxo-1-phenyl-3-(phenylamino)propyl)butanamide]	1 to 100	–
CCC(C)(C)C(=O)N(C)Cc1ccc(OC)cc1F [Compound 28, N-(2-fluoro-4-methoxybenzyl)-N,2,2-trimethylbutanamide]	–	0.001 to 1
CCC(C)(C)C(=O)N[C@@H](CC(=O)NCc1ccccc1)c1ccccc1 [Compound 107, (S)—N-(3-(benzylamino)-3-oxo-1-phenylpropyl)-2,2-dimethylbutanamide]	1 to 100	–
CCC(C)(C)C(=O)N(C)[C@@H](CO)c1ccccc1F [Compound 148]	1 to 100	–
CC(F)(F)C(C)(C)C(=O)N(O)Cc1ccc(F)cc1F [Compound S10]	1 to 100	–
CN(Cc1cc(F)c(F)c(F)c1)C(=O)C(C)(C)CO [Compound 66, 3-hydroxy-N,2,2-trimethyl-N-(3,4,5-trifluorobenzyl)propanamide]	1 to 100	–
CCC1(C(=O)N(C)Cc2cc(F)c(F)c(F)c2)CCC1 [Compound 88, 1-ethyl-N-methyl-N-(3,4,5-trifluorobenzyl)cyclobutanecarboxamide]	1 to 100	–
CNCC(C)(C)C(=O)N(C)Cc1cc(F)c(F)c(F)c1 [Compound 68, N,2,2-trimethyl-3-(methylamino)-N-(3,4,5-trifluorobenzyl) propanamide]	1 to 100	–
CCC(C)(C)C(=O)N(O)Cc1ccc(F)c(F)c1F [Compound 97, N-hydroxy-2,2-dimethyl-N-(2,3,4-trifluorobenzyl)butanamide]	–	0.001 to 1
CCC(C)(C)C(=O)N(Cc1ccccc1)OC [Compound S4, N-benzyl-N-methoxy-2,2-dimethylbutanamide]	–	0.001 to 1
CCC(C)(C)C(=O)N(C)CC1CCCCC1 [Compound 39, N-(cyclohexylmethyl)-N,2,2-trimethylbutanamide]	–	0.001 to 1
CCC(C)(C)C(=O)N(Cc1cccc(F)c1)CC1CC1 [Compound 64, N-(cyclopropylmethyl)-N-(3-fluorobenzyl)-2,2-dimethylbutanamide]	1 to 100	–
CC(C)N(C(=O)N(C)Cc1cc(F)cc(F)c1F)C(C)C [Compound 119, 1,1-diisopropyl-3-methyl-3-(2,3,5-trifluorobenzyl)urea]	1 to 100	–
CCC(C)(C)C(=O)NCc1ccc(F)cc1F [Compound 7, N-(2,4-difluorobenzyl)-2,2-dimethylbutanamide]	1 to 10	–
CC(C)(C)C(=O)NCc1ccccc1 [Compound 2, N-benzylpivalamide]	1 to 10	–
CCC(C)(C)C(=O)N(C)C1(c2ccccc2)CC1 [Compound 55, N,2,2-trimethyl-N-(1-phenylcyclopropyl)butanamide]	1 to 100	–
CCC(C)(C)C(=O)N(C)Cc1cc(C)cc(C)c1 [Compound 32, N-(3,5-dimethylbenzyl)-N,2,2-trimethylbutanamide]	1 to 100	–

SMILES	EC50 [1] [µM]	EC50 (values given as ranges in nM) [µM]
CCC(C)(C)C(=O)NCc1cccc(F)c1 [Compound 5, N-(3-fluorobenzyl)-2,2-dimethylbutanamide]	1 to 10	–
CN(Cc1cc(F)c(F)c(F)c1)C(=O)C1C(C)(C)C1(C)C [Compound 81, N,2,2,3,3-pentamethyl-N-(3,4,5-trifluorobenzyl)-cyclopropanecarboxamide]	1 to 100	–
CCN(Cc1ccccc1F)C(=O)C(C)(C)CC [Compound 10, N-ethyl-N-(2-fluorobenzyl)-2,2-dimethylbutanamide]	1 to 10	–
CCC(C)(C)C(=O)NCc1ccccc1C(F)(F)F [Compound 4, 2,2-dimethyl-N-(2-(trifluoromethyl)benzyl)butanamide]	1 to 10	–
CCC(C)(C)C(=O)N(O)Cc1cc(F)c(F)cc1F [Compound 98, N-hydroxy-2,2-dimethyl-N-(2,4,5-trifluorobenzyl)butanamide]	–	0.001 to 1
CN(Cc1cc(F)cc(F)c1F)C(=O)C1CCC1 [Compound 83, N-methyl-N-(2,3,5-trifluorobenzyl)cyclobutanecarboxamide]	1 to 10	–
CN(Cc1cc(F)cc(F)c1F)S(=O)(=O)C1CCCCC1 [Compound 79, N-methyl-N-(2,3,5-trifluorobenzyl)cyclohexanesulfonamide]	1 to 100	–
CN(Cc1cc(F)cc(F)c1F)C(=O)C(C)(C)C(C)(F)F [Compound S5, 3,3-difluoro-N,2,2-trimethyl-N-(2,3,5-trifluorobenzyl)butanamide]	–	0.001 to 1
CCC(C)(C)C(=O)N(C)Cc1cccc(O)c1 [Compound 21, N-(3-hydroxybenzyl)-N,2,2-trimethylbutanamide]	1 to 100	–
CCC(C)(C)C(=O)N(C)Cc1ccc(F)c(F)c1F [Compound 49, N,2,2-trimethyl-N-(2,3,4-trifluorobenzyl)butanamide]	–	0.001 to 1
CCC(C)(C)C(=O)NCc1ccccc1F [Compound 1, N-(2-fluorobenzyl)-2,2-dimethylbutanamide]	1 to 10	–
CCC(C)(C)C(=O)N(C)Cc1ccc(C)s1 [Compound 42, N,2,2-trimethyl-N-((5-methylthiophen-2-yl)methyl)butanamide]	–	0.001 to 1
CCC(C)(C)C(=O)N(C)Cc1cccs1 [Compound 40, N,2,2-trimethyl-N-(thiophen-2-ylmethyl)butanamide]	–	0.001 to 1
CCC(C)(C)C(=O)N(O)CC1CCCCC1 [Compound 141]	1 to 100	–
CCC(C)(C)C(=O)N(CCO)Cc1cc(F)cc(F)c1F [Compound 77, N-(2-hydroxyethyl)-2,2-dimethyl-N-(2,3,5-trifluorobenzyl)butanamide]	–	0.001 to 1
CCC(C)(C)C(=O)N(C)Cc1ccc(N2CCCCC2)c([N+](=O)[O-])c1 [Compound 30, N,2,2-trimethyl-N-(3-nitro-4-(piperidin-1-yl)benzyl)butanamide]	1 to 100	–
CC1CCCC(C)N1C(=O)N(C)Cc1cc(F)cc(F)c1F (stereo not shown) [Compound 121, N,2,6-trimethyl-N-(2,3,5-trifluorobenzyl)piperidine-1-carboxamide]	–	0.001 to 1
CCC(C)(C)C(=O)N(C)Cc1ccccc1F [Compound 13, N-(2-fluorobenzyl)-N,2,2-trimethylbutanamide]	–	0.001 to 1
CC(F)(F)C(C)(C)C(=O)N(O)Cc1ccc(F)c(F)c1 [Compound S11]	1 to 100	–
CC(F)(F)C(C)(C)C(=O)N(O)Cc1ccc(F)cc1 [Compound S9]	1 to 100	–

SMILES	EC50 [1] [µM]	EC50 (values given as ranges in nM) [µM]
CCC(C)(CC)C(=O)N(C)Cc1cc(F)c(F)c(F)c1 [Compound 72, 2-ethyl-N,2-dimethyl-N-(3,4,5-trifluorobenzyl)butanamide]	1 to 10	–
CN(Cc1cc(F)cc(F)c1F)C(=O)C1(c2ccccc2)CC1 [Compound 82, N-methyl-1-phenyl-N-(2,3,5-trifluorobenzyl)cyclopropanecarboxamide]	1 to 100	–
CCC(C)(C)C(=O)N(C)C(C)c1ccccc1 (stereo not shown) [Compound 53, N,2,2-trimethyl-N-(1-phenylethyl)butanamide]	1 to 100	–
CCC(C)(C)C(=O)N(C)Cc1cccc(F)c1F [Compound S8, N-(2,3-difluorobenzyl)-N,2,2-trimethylbutanamide]	–	0.001 to 1
CON(Cc1ccc(F)c(F)c1)C(=O)C(C)(C)C(C)(F)F [Compound S17]	1 to 100	–
C=CC(C)(C)C(=O)N(C)Cc1ccccc1F [Compound 147]	1 to 100	–
CCC(C)(C)C(=O)NCc1cccc(Br)c1 [Compound 6, N-(3-bromobenzyl)-2,2-dimethylbutanamide]	1 to 10	–
CCC(C)(C)C(=O)N(O)Cc1ccc(C)s1 [Compound 137]	1 to 100	–
CCC(C)(C)C(=O)N(O)CC1CCCC1 [Compound 139]	1 to 100	–
CCC(C)(C)C(=O)N(O)C(CO)c1ccccc1 (stereo not shown) [Compound 150]	1 to 100	–
CCC(C)(C)C(=O)N(O)Cc1ccc(F)cc1F [Compound 96, N-(2,4-difluorobenzyl)-N-hydroxy-2,2-dimethylbutanamide]	–	0.001 to 1
CN(Cc1cc(F)cc(F)c1F)C(=O)C1(c2ccccc2)CCCC1 [Compound 87, N-methyl-1-phenyl-N-(2,3,5-trifluorobenzyl)cyclopentanecarboxamide]	1 to 100	–
CCC(C)(CC)C(=O)NCc1cc(F)cc(F)c1F [Compound 73, 2-ethyl-2-methyl-N-(2,3,5-trifluorobenzyl)butanamide]	1 to 10	–
CCC(C)(C)C(=O)N(O)CC1CCCO1 (stereo not shown) [Compound 142]	1 to 100	–
CCC(C)(C)C(=O)N(C)Cc1cccnc1OC [Compound 37, N-((2-methoxypyridin-3-yl)methyl)-N,2,2-trimethylbutanamide]	1 to 100	–
CCC(C)(C)C(=O)N(O)Cc1ccc(F)cc1 [Compound 94, N-(4-fluorobenzyl)-N-hydroxy-2,2-dimethylbutanamide]	–	0.001 to 1
CCC(C)(C)C(=O)N(C)Cc1ccc(F)cc1F [Compound 24, N-(2,4-difluorobenzyl)-N,2,2-trimethylbutanamide]	–	0.001 to 1
CCN(Cc1cc(F)cc(F)c1F)C(=O)C1CCCCC1 [Compound 74, N-ethyl-N-(2,3,5-trifluorobenzyl)cyclohexanecarboxamide]	1 to 100	–
